Reference: US20230391776A1, “AMIDE OXAZOLE COMPOUND” (MEDSHINE DISCOVERY INC., priority 2020, published 2023)

Legend:
human BTK = molecular target: T1, human BTK (Homo sapiens, UniProt Q06187); experiment: In vitro BTK kinase activity, 33P isotope-labeled kinase assay; type: biochemical
T1 construct: purchased Reaction Biology Corp
Experimental: The IC50 values were determined using ^33P isotope-labeled kinase activity assay (Reaction Biology Corp) to evaluate the inhibitory ability of the tested compounds on human BTK.
Buffer conditions: 20 mM Hepes (pH 7.5), 10 mM MgCl2, 1 mM EGTA, 0.02% Brij35, 0.02 mg/mL BSA, 0.1 mM Na3VO4, 2 mM DTT, 1% DMSO.
Test procedure: At room temperature, the tested compound was dissolved in DMSO and a 10 mM solution was prepared for use. The substrate was dissolved in a newly prepared buffer solution, and the BTK kinase was added thereto and mixed evenly. The compound dissolved in DMSO was added to the kinase reaction mixture through Echo 550 (Acoustic technology; Nanoliter range). After incubation for 20 minutes at room temperature, ^33P-ATP was added to initiate the reaction. The reaction was carried out at room temperature for 2 hours, and the radioactivity of the reaction solution drop was detected by filtration-binding method with P81 ion exchange filter paper. The kinase activity data were expressed by comparing the kinase activity of the group containing the tested compound with the kinase activity of the blank group (only containing DMSO), and the IC50 value was obtained by curve fitting by Prism4 software (GraphPad), the experimental results were shown in Table 3.

[1] = Pharmacokinetic study of mice; type: in vivo; conditions: mouse, plasma, CD-1 male mice; for Vd / AUC(0-t) / clearance / half-life: IV 3 mg/kg; for Vd: read-out: Apparent volume of distribution Vdss; for AUC(0-t): read-out: Area under the plasma concentration-time curve AUC0-24h; for clearance: read-out: Clearance rate CL; for half-life: read-out: Half-life T1/2 (converted); for bioavailability / AUC / Cmax / Tmax: PO 10 mg/kg; for AUC: read-out: Area under the plasma concentration-time curve AUC; for Cmax: read-out: Peak concentration Cmax; for Tmax: read-out: Peak time Tmax
Experimental: The purpose of this experiment was to study the pharmacokinetics of the test compound in the plasma of CD-1 male mice after intravenous injection and oral administration.
Intravenous injection group: the tested compound was weighed and dissolved with 5% DMSO/10% Solutol/85% H2O, and the pH was adjusted to 4-5 with 6M hydrochloric acid, and a clear solution of 1.5 mg/mL was prepared by vortex, which was filtered by 0.22 m microporous membrane for later use. CD-1 male mice from 6 to 10 weeks old were selected and the test compound solution was injected intravenously at a dose of 3 mg/kg. The sample collection time was: 0.083, 0.25, 0.5, 1, 2, 4, 6, 8, 24 hours.
Oral administration group: the tested compound was weighed and dissolved with 5% DMSO/10% Solutol/85% H2O, the pH was adjusted to 3-4 with 6M hydrochloric acid, and a clear solution of 2.0 mg/mL was prepared by vortex for later use. CD-1 male mice from 6 to 10 weeks old were selected and the test compound was administered orally at a dose of 10 mg/kg. The sample collection time was: 0.25, 0.5, 1, 2, 4, 6, 8, 10, 24 hours.
Approximately 50 μL of whole blood was collected through the jugular vein at each time point for plasma preparation for concentration determination by high performance liquid chromatography-tandem mass spectrometry (LC-MS/MS). All animals were euthanized by CO2 anesthesia after collecting PK samples at the last time point. The non-atrioventricular model of WinnonLin™ Version 6.3 (Pharsight, Mountain View, CA) pharmacokinetic software was used to process the plasma concentration, and the pharmacokinetic parameters were calculated by linear logarithmic trapezoid method.

OCI-LY3 cell line = experiment: OCI-LY3 cell proliferation (CTG); type: cell-based; conditions: Homo sapiens, 72 hours
Experimental: The tumor cell line OCI-LY3 was used to detect the effect of the compound of the disclosure on inhibiting tumor cell proliferation in vitro.
The tumor cell line used in this experiment was provided by Nanjing Cobioer Biotechnology Co., Ltd. See Table 6 below for specific information.
The OCI-LY3 cell line was cultured in the corresponding medium at 37° C. and 5% CO2, and the logarithmic growth period cells were used for experimental planking. The cells were collected and centrifuged at 800 rpm for 5 minutes, and the culture medium was re-suspended and spread in a 96-well plate. After being cultured overnight in 37° C., 5% CO2 incubator, drugs with different concentration gradients (10 μL of prepared diluent of test compound was added) were added, and incubated in 37° C., 5% CO2 incubator for 72 hours. The cell culture plate was incubated with CTG reagent at room temperature in the dark for 30 minutes and return to room temperature. CTG solution was added into the biosafety cabinet in the dark 100 μL/well, and was shaken and mixed evenly on plate shaker in the dark for 2 minutes, and incubated at room temperature in the dark for 10 minutes. The luminous value was read and recorded with Perkin Elmer Envision instrument.
The luminous value of the blank control group was subtracted from the luminous value measured at each drug concentration, the ratio of this value to DMSO group was taken as the cell inhibition rate (%). GraphPad software was used, the logarithm of drug concentration (log drug concentration) versus inhibition rate was plotted, and the IC50 value and 95% confidence value were automatically fitted and calculated by log (inhibitor) vs. response-variable slop (four parameters) algorithm of nonlinear regression by software.

Pharmacokinetics of rats = type: in vivo; conditions: rat, plasma, SD male rats; for Vd / AUC(0-t) / clearance / half-life: IV 1 mg/kg; for Vd: read-out: Apparent volume of distribution Vdss; for AUC(0-t): read-out: Area under the plasma concentration-time curve AUC0-24h; for clearance: read-out: Clearance rate CL; for half-life: read-out: Half-life T1/2 (converted); for bioavailability / AUC / Cmax / Tmax: PO 3 mg/kg; for AUC: read-out: Area under the plasma concentration-time curve AUC; for Cmax: read-out: Peak concentration Cmax; for Tmax: read-out: Peak time Tmax
Experimental: The purpose of this experiment was to study the pharmacokinetics of the tested compound in the plasma of SD male rats after intravenous injection and oral administration.
SD male rats from 7 to 10 weeks old were selected, and the dosage of intravenous and oral administration was 1 mg/kg and 3 mg/kg respectively. Rats in the gavage group fasted for at least 12 hours before administration, and feeding was resumed after administration for 4 hours. Intravenous injection group was free to eat and drink during the whole experiment.
Drug preparation operation: in the intravenous injection group, the compound was weighed and dissolved with 5% DMSO/10% Solutol/85% H2O, and a clear solution of 0.5 mg/mL was prepared by vortex, which was filtered by a 0.22 m microporous membrane for later use. In the gavage group, the compound was dissolved in 5% DMSO/10% Solutol/85% H2O, and a uniform suspension was prepared by vortex. On the day of the experiment, the animals in the intravenous group were given the corresponding compound by a single injection through the tail vein, and the dosage volume was 2 mL/kg. In the oral group, the corresponding compounds were given by single gavage, and the dosage volume was 5 mL/kg. The animals before administration were weighed, and the administration volume was calculated according to the weight. The sampling time was 0.083 (injection group), 0.25, 0.5, 1, 2, 4, 6, 8, 10 (gavage group), 24 hours. Approximately 250 μL of whole blood was collected through the jugular vein at each time point for plasma preparation for concentration determination by high performance liquid chromatography-tandem mass spectrometry (LC-MS/MS). All animals were euthanized by CO2 anesthesia after collecting PK samples at the last time point. The non-atrioventricular model of WinnonLin™ Version 6.3 (Pharsight, Mountain View, CA) pharmacokinetic software was used to process the plasma concentration, and the pharmacokinetic parameters were calculated by linear logarithmic trapezoid method.

T1 sequence (Q06187 whole entry): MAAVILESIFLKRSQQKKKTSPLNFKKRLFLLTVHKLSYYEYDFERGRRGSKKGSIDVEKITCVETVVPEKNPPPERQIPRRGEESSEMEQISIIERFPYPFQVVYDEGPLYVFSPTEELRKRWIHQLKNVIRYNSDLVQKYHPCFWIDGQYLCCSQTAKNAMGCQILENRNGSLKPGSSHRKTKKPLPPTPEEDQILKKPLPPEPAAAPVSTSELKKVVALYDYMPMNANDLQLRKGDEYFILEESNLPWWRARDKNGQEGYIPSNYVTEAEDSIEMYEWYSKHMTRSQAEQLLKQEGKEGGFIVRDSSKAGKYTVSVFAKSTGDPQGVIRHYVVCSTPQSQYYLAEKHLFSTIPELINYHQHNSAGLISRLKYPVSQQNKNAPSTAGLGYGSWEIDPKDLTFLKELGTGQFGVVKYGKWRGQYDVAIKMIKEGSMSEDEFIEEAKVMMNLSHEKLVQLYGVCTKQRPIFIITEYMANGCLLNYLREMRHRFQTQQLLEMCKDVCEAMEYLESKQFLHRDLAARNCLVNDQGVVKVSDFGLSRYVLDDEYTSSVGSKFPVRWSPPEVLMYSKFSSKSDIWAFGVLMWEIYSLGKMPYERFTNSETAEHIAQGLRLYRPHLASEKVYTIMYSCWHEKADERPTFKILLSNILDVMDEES

`CC(C)(O)c1cn2cc(NC(=O)c3coc(-c4ccnc(N)c4F)n3)c(-c3ccccc3)cc2n1` [WX027] showed an IC50 (human BTK) of 2.9 nM, a Vd [1] of 0.8 L/kg and an AUC(0-t) [1] of 3.77 µM·h. For the same molecule, the clearance [1] was 28.2 mL/min/kg, the half-life [1] was 1.9 h and the bioavailability [1] was 64%. It also gave an AUC [1] of 8.08 µM·h, a Cmax [1] of 4.93 µM and a Tmax [1] of 0.3 h. The IC50 (OCI-LY3 cell line) was 48 nM, the Vd (Pharmacokinetics of rats) was 0.3 L/kg and the AUC(0-t) (Pharmacokinetics of rats) was 8.84 µM·h. The clearance (Pharmacokinetics of rats) was 4 mL/min/kg, the half-life (Pharmacokinetics of rats) was 1.4 h and the bioavailability (Pharmacokinetics of rats) was 38%. The AUC (Pharmacokinetics of rats) was 10.2 µM·h, the Cmax (Pharmacokinetics of rats) was 4.33 µM and the Tmax (Pharmacokinetics of rats) was 0.3 h.

`Cc1cc(-c2nc(C(=O)Nc3cn4cc(C(C)(C)O)nc4cc3-c3ccccc3)co2)ccn1` [WX009] showed an IC50 (human BTK) of 20.1 nM, a Vd [1] of 1.5 L/kg and an AUC(0-t) [1] of 17.9 µM·h. For the same molecule, the clearance [1] was 5.9 mL/min/kg, the half-life [1] was 8.1 h and the bioavailability [1] was 78%. For the same molecule, the AUC [1] was 48 µM·h, the Cmax [1] was 17.8 µM and the Tmax [1] was 0.5 h. The IC50 (OCI-LY3 cell line) was 121 nM, the Vd (Pharmacokinetics of rats) was 0.2 L/kg and the AUC(0-t) (Pharmacokinetics of rats) was 35.5 µM·h. For the same molecule, the clearance (Pharmacokinetics of rats) was 1.1 mL/min/kg, the half-life (Pharmacokinetics of rats) was 2.5 h and the bioavailability (Pharmacokinetics of rats) was 55%. The AUC (Pharmacokinetics of rats) was 59.1 µM·h, the Cmax (Pharmacokinetics of rats) was 10.1 µM and the Tmax (Pharmacokinetics of rats) was 1.3 h.

Molecule `CC(C)(O)c1cn2cc(NC(=O)c3coc(-c4ccnc(N)c4)n3)c(-c3ccccc3)cc2n1` [WX017] has an IC50 (human BTK) of 5.2 nM, a Vd [1] of 0.5 L/kg and an AUC(0-t) [1] of 7.67 µM·h. The clearance [1] was 15.1 mL/min/kg, the half-life [1] was 2.3 h and the bioavailability [1] was 41%. For the same molecule, the AUC [1] was 10.4 µM·h, the Cmax [1] was 6.52 µM and the Tmax [1] was 0.8 h. It also gave an IC50 (OCI-LY3 cell line) of 18 nM, a Vd (Pharmacokinetics of rats) of 0.8 L/kg and an AUC(0-t) (Pharmacokinetics of rats) of 5.51 µM·h. It also gave a clearance (Pharmacokinetics of rats) of 7 mL/min/kg, a half-life (Pharmacokinetics of rats) of 4.1 h and a bioavailability (Pharmacokinetics of rats) of 29%. It also gave an AUC (Pharmacokinetics of rats) of 4.77 µM·h, a Cmax (Pharmacokinetics of rats) of 1.02 µM and a Tmax (Pharmacokinetics of rats) of 0.8 h.
